Measured values published in the supplement of paper PMC10307832.

What was measured:
Assay in all cases: relative viability (nuclei count vs DMSO), 5 days (fraction); higher = more cells survive
201T = system: 201T
Procedure, shortened: (§1)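 Relative viability is defined as nuclei in treated wells over nuclei in vehicle wells. Duplicate plates were run and medians reported. Lung cancer cell lines in 1536-well plates were dosed by pin tool one day after seeding, with one drug or with a fixed anchor-drug dose plus five library-drug doses (not always all listed) in √10 steps, and nuclei were counted after 5 days.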

BEN = system: BEN
Procedure, shortened: as §1

CAL-12T = system: CAL-12T
Procedure, shortened: as §1

HCC-827 = system: HCC-827
Procedure, shortened: as §1

LCLC-103H = system: LCLC-103H
Procedure, shortened: as §1

LCLC-97TM1 = system: LCLC-97TM1
Procedure, shortened: as §1

LXF-289 = system: LXF-289
Procedure, shortened: as §1

NCI-H1395 = system: NCI-H1395
Procedure, shortened: as §1

NCI-H1437 = system: NCI-H1437
Procedure, shortened: as §1

NCI-H1650 = system: NCI-H1650
Procedure, shortened: as §1

NCI-H1792 = system: NCI-H1792
Procedure, shortened: as §1

NCI-H1793 = system: NCI-H1793
Procedure, shortened: as §1

NCI-H1944 = system: NCI-H1944
Procedure, shortened: as §1

NCI-H2087 = system: NCI-H2087
Procedure, shortened: as §1

NCI-H2228 = system: NCI-H2228
Procedure, shortened: as §1

NCI-H2405 = system: NCI-H2405
Procedure, shortened: as §1

NCI-H3122 = system: NCI-H3122
Procedure, shortened: as §1

NCI-H322M = system: NCI-H322M
Procedure, shortened: as §1

NCI-H647 = system: NCI-H647
Procedure, shortened: as §1

NCI-H727 = system: NCI-H727
Procedure, shortened: as §1

RERF-LC-KJ = system: RERF-LC-KJ
Procedure, shortened: as §1

SK-LU-1 = system: SK-LU-1
Procedure, shortened: as §1

SMILES: COc1cc2nccc(Oc3ccc(NC(=O)Nc4cc(C)on4)c(Cl)c3)c2cc1OC [Tivozanib] + CC(=O)Nc1cccc(-n2c(=O)n(C3CC3)c(=O)c3c(Nc4ccc(I)cc4F)n(C)c(=O)c(C)c32)c1 [Trametinib] (partner 0.02 µM)
- relative viability (201T; first compound 0.005 µM): 0.691
- relative viability (201T; first compound 0.01581 µM): 0.759
- relative viability (201T; first compound 0.05 µM): 0.681
- relative viability (201T; first compound 0.1581 µM): 0.717
- relative viability (201T; first compound 0.5 µM): 0.784
- relative viability (BEN; first compound 0.005 µM): 1.13
- relative viability (BEN; first compound 0.01581 µM): 1.1
- relative viability (BEN; first compound 0.05 µM): 0.961
- relative viability (BEN; first compound 0.1581 µM): 0.903
- relative viability (BEN; first compound 0.5 µM): 1
- relative viability (CAL-12T; first compound 0.005 µM): 0.297
- relative viability (CAL-12T; first compound 0.01581 µM): 0.356
- relative viability (CAL-12T; first compound 0.05 µM): 0.414
- relative viability (CAL-12T; first compound 0.1581 µM): 0.235
- relative viability (CAL-12T; first compound 0.5 µM): 0.408
- relative viability (HCC-827; first compound 0.005 µM): 0.52
- relative viability (HCC-827; first compound 0.01581 µM): 0.543
- relative viability (HCC-827; first compound 0.05 µM): 0.571
- relative viability (HCC-827; first compound 0.1581 µM): 0.527
- relative viability (HCC-827; first compound 0.5 µM): 0.533
- relative viability (LCLC-103H; first compound 0.005 µM): 0.673
- relative viability (LCLC-103H; first compound 0.01581 µM): 0.78
- relative viability (LCLC-103H; first compound 0.05 µM): 0.694
- relative viability (LCLC-103H; first compound 0.1581 µM): 0.729
- relative viability (LCLC-103H; first compound 0.5 µM): 0.695
- relative viability (LCLC-97TM1; first compound 0.005 µM): 0.15
- relative viability (LCLC-97TM1; first compound 0.01581 µM): 0.194
- relative viability (LCLC-97TM1; first compound 0.05 µM): 0.206
- relative viability (LCLC-97TM1; first compound 0.1581 µM): 0.165
- relative viability (LCLC-97TM1; first compound 0.5 µM): 0.273
- relative viability (LXF-289; first compound 0.005 µM): 0.698
- relative viability (LXF-289; first compound 0.01581 µM): 0.674
- relative viability (LXF-289; first compound 0.05 µM): 0.629
- relative viability (LXF-289; first compound 0.1581 µM): 0.646
- relative viability (LXF-289; first compound 0.5 µM): 0.668
- relative viability (NCI-H1395; first compound 0.005 µM): 0.992
- relative viability (NCI-H1395; first compound 0.01581 µM): 0.961
- relative viability (NCI-H1395; first compound 0.05 µM): 1.17
- relative viability (NCI-H1395; first compound 0.1581 µM): 0.952
- relative viability (NCI-H1395; first compound 0.5 µM): 0.938
- relative viability (NCI-H1437; first compound 0.005 µM): 0.567
- relative viability (NCI-H1437; first compound 0.01581 µM): 0.535
- relative viability (NCI-H1437; first compound 0.05 µM): 0.592
- relative viability (NCI-H1437; first compound 0.1581 µM): 0.49
- relative viability (NCI-H1437; first compound 0.5 µM): 0.522
- relative viability (NCI-H1650; first compound 0.005 µM): 0.592
- relative viability (NCI-H1650; first compound 0.01581 µM): 0.582
- relative viability (NCI-H1650; first compound 0.05 µM): 0.584
- relative viability (NCI-H1650; first compound 0.1581 µM): 0.545
- relative viability (NCI-H1650; first compound 0.5 µM): 0.547
- relative viability (NCI-H1792; first compound 0.005 µM): 0.401
- relative viability (NCI-H1792; first compound 0.01581 µM): 0.397
- relative viability (NCI-H1792; first compound 0.05 µM): 0.438
- relative viability (NCI-H1792; first compound 0.5 µM): 0.632
- relative viability (NCI-H1793; first compound 0.005 µM): 0.305
- relative viability (NCI-H1793; first compound 0.01581 µM): 0.457
- relative viability (NCI-H1793; first compound 0.05 µM): 0.471
- relative viability (NCI-H1793; first compound 0.5 µM): 0.445
- relative viability (NCI-H1944; first compound 0.005 µM): 0.344
- relative viability (NCI-H1944; first compound 0.01581 µM): 0.453
- relative viability (NCI-H1944; first compound 0.05 µM): 0.399
- relative viability (NCI-H1944; first compound 0.1581 µM): 0.423
- relative viability (NCI-H1944; first compound 0.5 µM): 0.455
- relative viability (NCI-H2087; first compound 0.005 µM): 0.147
- relative viability (NCI-H2087; first compound 0.01581 µM): 0.211
- relative viability (NCI-H2087; first compound 0.05 µM): 0.193
- relative viability (NCI-H2087; first compound 0.1581 µM): 0.166
- relative viability (NCI-H2087; first compound 0.5 µM): 0.243
- relative viability (NCI-H2228; first compound 0.005 µM): 0.55
- relative viability (NCI-H2228; first compound 0.01581 µM): 0.595
- relative viability (NCI-H2228; first compound 0.05 µM): 0.514
- relative viability (NCI-H2228; first compound 0.1581 µM): 0.249
- relative viability (NCI-H2228; first compound 0.5 µM): 0.539
- relative viability (NCI-H2405; first compound 0.005 µM): 0.543
- relative viability (NCI-H2405; first compound 0.01581 µM): 0.664
- relative viability (NCI-H2405; first compound 0.05 µM): 0.607
- relative viability (NCI-H2405; first compound 0.1581 µM): 0.499
- relative viability (NCI-H2405; first compound 0.5 µM): 0.554
- relative viability (NCI-H3122; first compound 0.005 µM): 0.197
- relative viability (NCI-H3122; first compound 0.01581 µM): 0.213
- relative viability (NCI-H3122; first compound 0.05 µM): 0.229
- relative viability (NCI-H3122; first compound 0.1581 µM): 0.235
- relative viability (NCI-H3122; first compound 0.5 µM): 0.321
- relative viability (NCI-H322M; first compound 0.005 µM): 0.509
- relative viability (NCI-H322M; first compound 0.01581 µM): 0.602
- relative viability (NCI-H322M; first compound 0.05 µM): 0.55
- relative viability (NCI-H322M; first compound 0.1581 µM): 0.517
- relative viability (NCI-H322M; first compound 0.5 µM): 0.577
- relative viability (NCI-H647; first compound 0.005 µM): 0.521
- relative viability (NCI-H647; first compound 0.01581 µM): 0.461
- relative viability (NCI-H647; first compound 0.05 µM): 0.483
- relative viability (NCI-H647; first compound 0.1581 µM): 0.408
- relative viability (NCI-H647; first compound 0.5 µM): 0.49
- relative viability (NCI-H727; first compound 0.005 µM): 0.385
- relative viability (NCI-H727; first compound 0.01581 µM): 0.419
- relative viability (NCI-H727; first compound 0.05 µM): 0.366
- relative viability (NCI-H727; first compound 0.1581 µM): 0.38
- relative viability (NCI-H727; first compound 0.5 µM): 0.398
- relative viability (RERF-LC-KJ; first compound 0.005 µM): 0.758
- relative viability (RERF-LC-KJ; first compound 0.01581 µM): 0.989
- relative viability (RERF-LC-KJ; first compound 0.05 µM): 0.805
- relative viability (RERF-LC-KJ; first compound 0.1581 µM): 0.859
- relative viability (RERF-LC-KJ; first compound 0.5 µM): 0.805
- relative viability (SK-LU-1; first compound 0.005 µM): 0.508
- relative viability (SK-LU-1; first compound 0.01581 µM): 0.498
- relative viability (SK-LU-1; first compound 0.05 µM): 0.594
- relative viability (SK-LU-1; first compound 0.1581 µM): 0.3
- relative viability (SK-LU-1; first compound 0.5 µM): 0.503
